“And” between values parts separate entries of the source, which are not always exact repeats. Equal entries are not always repeated.
What was measured:
Assay type in all cases: biochemical
[1] = tested on: peroxidase; experiment: Peroxidase assay in saliva (Amplex Red); details: 500 ppm; pooled or unpooled saliva; 30 minutes; FIGS. 26-29
Description: To determine the effect of various GRAS compounds as inhibitors of peroxidase activity, a standard assay using Amplex® Red (Life Technologies), which releases a fluorescent oxidation product.
The test compounds, such as GRAS materials or cocktails of same, were prepared at a concentration of 500 ppm in distilled water. For the assay, 50 μl samples of test compounds were mixed with 20-30 μl of saliva (either “pooled” or “unpooled”) prior to the addition of Amplex® Red. […] Reactions were allowed to run for 30 minutes during these assays.

[2] = target: T1, α-amylase (Homo sapiens, UniProt P0DUB6); experiment: α-Amylase inhibition saliva screening (chromogenic substrate, 405 nm); details: for Ave (absorbance at 405 nm) / individual reading (absorbance at 405 nm): saliva; for Ave (absorbance at 405 nm): 5,000 ppm; for individual reading (absorbance at 405 nm): test compound prepared at 5,000 ppm, 37° C.; for α-Amylase inhibition: 100% saliva samples, FIG. 11
T1 sequence (P0DUB6 16-511): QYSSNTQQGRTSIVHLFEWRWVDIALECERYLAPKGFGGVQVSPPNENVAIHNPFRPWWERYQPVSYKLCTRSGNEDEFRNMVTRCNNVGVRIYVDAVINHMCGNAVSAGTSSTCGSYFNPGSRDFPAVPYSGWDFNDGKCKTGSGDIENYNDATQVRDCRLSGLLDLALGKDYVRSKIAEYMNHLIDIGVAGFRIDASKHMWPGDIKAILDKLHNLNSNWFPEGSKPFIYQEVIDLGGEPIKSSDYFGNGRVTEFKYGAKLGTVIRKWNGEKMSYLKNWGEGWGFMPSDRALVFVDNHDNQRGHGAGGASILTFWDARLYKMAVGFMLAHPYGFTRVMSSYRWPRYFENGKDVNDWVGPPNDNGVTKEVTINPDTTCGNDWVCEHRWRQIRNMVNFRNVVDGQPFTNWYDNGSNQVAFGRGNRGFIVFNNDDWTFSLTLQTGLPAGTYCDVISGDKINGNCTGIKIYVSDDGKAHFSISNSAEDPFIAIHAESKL
Excerpt: Further details of these five compounds may also be seen in Table 4.

[3] = target: T2, Lysozyme (Homo sapiens, UniProt P61626); experiment: Lysozyme inhibition saliva screening (fluorescein-labeled Micrococcus lysodeikticus); details: 100% saliva samples (data not shown)
T2 sequence (P61626 19-148): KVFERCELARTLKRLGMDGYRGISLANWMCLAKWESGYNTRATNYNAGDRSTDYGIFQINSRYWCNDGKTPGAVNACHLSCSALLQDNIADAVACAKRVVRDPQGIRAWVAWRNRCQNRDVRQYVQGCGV
Excerpt: Further details of these five compounds may also be seen in Table 5.

COc1ccc(O)c(C(C)(C)C)c1 [CDI-39, 3-tert--butyl-hydroxyanisole]
peroxidase inhibition [1]: showed significant peroxidase inhibition capabilities

Aluminum sulfate hydrate [CDI-34]
Ave (absorbance at 405 nm) ([2]; 0 min): 0.40 | individual reading (absorbance at 405 nm) ([2]; 0 min, sulfate hydrate): 0.40 (2×) and 0.36 and 0.45 | α-Amylase inhibition [2]: shown to inhibit α-Amylase | Ave (absorbance at 405 nm) ([2]; 5 min): 0.50 | individual reading (absorbance at 405 nm) ([2]; 5 min, sulfate hydrate): 0.49 and 0.50 (2×) and 0.52 | Ave (absorbance at 405 nm) ([2]; 15 min): 0.56 | individual reading (absorbance at 405 nm) ([2]; 15 min, sulfate hydrate): 0.53 and 0.61 and 0.54 and 0.56

O=C(O)c1ccccc1 [CDI-40, Benzoic acid]
Lysozyme inhibition [3]: shown to inhibit Lysozyme

Aluminum potassium sulfate dodecahydrate [CDI-42]
Ave (absorbance at 405 nm) ([2]; 0 min): 0.92 | individual reading (absorbance at 405 nm) ([2]; 0 min): 0.80 and 1.13 and 0.90 and 0.84 | α-Amylase inhibition [2]: shown to inhibit α-Amylase | individual reading (absorbance at 405 nm) ([2]; 5 min): 1.65 and 2.15 and 1.80 and 1.81 | individual reading (absorbance at 405 nm) ([2]; 15 min): 2.37 and 2.38 and 2.25 and 2.17 | peroxidase inhibition [1]: showed significant peroxidase inhibition capabilities

Cn1c(=O)c2c(ncn2C)n(C)c1=O [CDI-33, Caffeine]
peroxidase inhibition [1]: showed significant peroxidase inhibition capabilities

Reference: patent publication US8293537B2, “Systems and methods for hemoglobin analysis” (priority 2010, dated 2012)
